Experiment [1] relates to IL-1β. Put plainly: PBMC assay: inhibition of IL-1β release after LPS stimulation (MSD). In kind it is cell-based. As to conditions: human PBMCs, 100 ng/ml LPS for 6 hrs, MSD, 96 well plates, read-out: IL1β IC50. The essentials:
(§1)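 TNF (EC50) and IL-1β (IC50) were quantified by MSD in supernatants after 6 h stimulation with 100 ng/ml LPS. Thawed healthy-donor PBMCs, 7.5×10^4 per well, were exposed to 1:3 compound dilutions for 30 min beforehand at 37 °C.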

In experiment [2] the test system is TNF. Description: PBMC assay: TNF cytokine levels after LPS stimulation (MSD). The conditions noted are these: human PBMCs, 100 ng/ml LPS for 6 hrs. It counts as cell-based. In outline:
as §1

Read-outs that look alike come from different tables or passages of the source. Where only a bound is given, the exact number is not on record here.

For `Cc1nnc2n1CC(NC(=O)Cn1nc(C(C)C)c3cc(C(F)(F)F)ccc3c1=O)CC2` (centres unmarked) [Final Cpd X68], in experiment [1] (Homo sapiens, PBMC, 6 h), the IC50 was 728 nM. Further, in experiment [2] (Homo sapiens, PBMC, 6 h), the EC50 is > 20000 nM.
Regarding `CC(C)c1nn(CC(=O)Nc2ncnc3c2ncn3C)c(=O)c2ccc(C(F)(F)F)cc12` [Final Cpd X69], the half-inhibitory concentration (IC50) in experiment [1] (Homo sapiens, PBMC, 6 h) amounted to 735 nM. In addition, the EC50 in experiment [2] (Homo sapiens, PBMC, 6 h) was > 20000 nM.
As for `CC(C)c1nn(CC(=O)N[C@H]2CN(CC[C@@H](C)O)CC[C@H]2O)c(=O)c2ccc(C(F)(F)F)cc12` [Final Cpd X70], the IC50 in experiment [1] (Homo sapiens, PBMC, 6 h) was determined as 740 nM. Also, the concentration for a half-maximal effect (EC50) in experiment [2] (Homo sapiens, PBMC, 6 h) is > 20000 nM.
For the molecule `CC(C)c1nn(CC(=O)Nc2ccc3nncn3c2)c(=O)c2c(F)cc(C(F)(F)F)cc12` [Final Cpd X71], the IC50 in experiment [1] (Homo sapiens, PBMC, 6 h) stood at 751 nM. In addition, the EC50 in experiment [2] (Homo sapiens, PBMC, 6 h) was > 20000 nM.
In the case of `CC(C)c1nn(CC(=O)Nc2cnc3nccn3c2)c(=O)c2ccc(C(F)(F)F)cc12` [Final Cpd X73], the IC50 in experiment [1] (Homo sapiens, PBMC, 6 h) is 792 nM. For the same molecule, the EC50 in experiment [2] (Homo sapiens, PBMC, 6 h) is > 20000 nM.
`Cc1c(NC(=O)Cn2nc(C(C)C)c3cc(C(F)(F)F)ccc3c2=O)ccc2nccn12` [Final Cpd X74]: in experiment [1] (Homo sapiens, PBMC, 6 h), the IC50 was found to be 804 nM. Besides, the EC50 in experiment [2] (Homo sapiens, PBMC, 6 h) was > 20000 nM.
Consider `CC(O)c1nn(CC(=O)N[C@H]2C[C@@](C)(O)C2)c(=O)c2ccc(C(F)(F)F)cc12` (some centres unmarked) [Final Cpd X75], for which the half-maximal inhibitory concentration (IC50) in experiment [1] (Homo sapiens, PBMC, 6 h) came out at 818 nM. In addition, the half-maximal effective concentration (EC50) in experiment [2] (Homo sapiens, PBMC, 6 h) is > 20000 nM.
As to `O=C(Cn1nc(CCC(F)(F)F)c2cc(C(F)(F)F)ccc2c1=O)Nc1ccc2nncn2c1` [Final Cpd X76], in experiment [1], the IC50 came out at 829 nM. Moreover, the EC50 in experiment [2] is > 20000 nM.
For the molecule `CC(C)c1nn(CC(=O)NC2CC(C(F)(F)F)C2)c(=O)c2ccc(C(F)(F)F)cc12` (centres unmarked) [Final Cpd X77], the 50% inhibitory concentration (IC50) in experiment [1] (Homo sapiens, PBMC, 6 h) came out at 830 nM. Besides, the EC50 in experiment [2] (Homo sapiens, PBMC, 6 h) is > 20000 nM.
As to `CC(C)c1nn(CC(=O)N[C@H]2CC[C@](C)(O)CC2)c(=O)c2ccc(C(F)(F)F)cc12` [Final Cpd X78], in experiment [1] (Homo sapiens, PBMC, 6 h), the half-inhibitory concentration (IC50) was 861 nM. Further, the concentration giving a half-maximal response (EC50) in experiment [2] (Homo sapiens, PBMC, 6 h) is > 20000 nM.
In the case of `Cc1cnc2ccc(NC(=O)Cn3nc(C(C)C)c4cc(C(F)(F)F)ccc4c3=O)cn12` [Final Cpd X79], the half-maximal inhibitory concentration (IC50) in experiment [1] (Homo sapiens, PBMC, 6 h) came out at 865 nM. Besides, in experiment [2] (Homo sapiens, PBMC, 6 h), the EC50 was > 20000 nM.
`CC(C)c1nn(CC(=O)Nc2ncc3c(ncn3C)n2)c(=O)c2ccc(C(F)(F)F)cc12` [Final Cpd X80]: the half-inhibitory concentration (IC50) in experiment [1] (Homo sapiens, PBMC, 6 h) is 866 nM. For the same molecule, the 50% effective concentration (EC50) in experiment [2] (Homo sapiens, PBMC, 6 h) was > 20000 nM.
As to `CC(C)c1nn(CC(=O)N[C@H]2CN(CC[C@H](C)O)CC[C@H]2O)c(=O)c2ccc(C(F)(F)F)cc12` [Final Cpd X81], the half-maximal inhibitory concentration (IC50) in experiment [1] (Homo sapiens, PBMC, 6 h) was 879 nM. For the same molecule, the EC50 in experiment [2] (Homo sapiens, PBMC, 6 h) is > 20000 nM.
As for `CC(C)c1nn(CC(=O)Nc2ccc3nncn3n2)c(=O)c2c(O)cc(C(F)(F)F)cc12` [Final Cpd X82], the 50% inhibitory concentration (IC50) in experiment [1] (Homo sapiens, PBMC, 6 h) stood at 888 nM. The EC50 in experiment [2] (Homo sapiens, PBMC, 6 h) is 12900 nM.
Regarding `CC(C)c1nn(CC(=O)N[C@H]2CN(C3CC(F)(F)C3)CC[C@H]2O)c(=O)c2ccc(C(F)(F)F)cc12` [Final Cpd X83], the half-inhibitory concentration (IC50) in experiment [1] (Homo sapiens, PBMC, 6 h) turned out to be 910 nM. Moreover, a half-maximal response in experiment [2] (Homo sapiens, PBMC, 6 h) (EC50) required 12900 nM.
Turning to `C[C@]1(O)C[C@@H](NC(=O)Cn2nc(C(O)C(F)(F)F)c3cc(C(F)(F)F)ccc3c2=O)C1` (some centres unmarked) [Final Cpd X84], the IC50 in experiment [1] (Homo sapiens, PBMC, 6 h) amounted to 911 nM. The EC50 in experiment [2] (Homo sapiens, PBMC, 6 h) was > 20000 nM.
As to `CC(c1nn(CC(=O)N[C@H]2C[C@@](C)(O)C2)c(=O)c2ccc(C(F)(F)F)cc12)C(F)(F)F` (some centres unmarked) [Final Cpd X85], in experiment [1] (Homo sapiens, PBMC, 6 h), the 50% inhibitory concentration (IC50) came out at 915 nM. In addition, the EC50 in experiment [2] (Homo sapiens, PBMC, 6 h) was > 20000 nM.
Turning to `CC(C)c1nn(CC(=O)N[C@@H]2CCC[C@H]2O)c(=O)c2ccc(C(F)(F)F)cc12` [Final Cpd X86], the IC50 in experiment [1] (Homo sapiens, PBMC, 6 h) was determined as 915 nM. The EC50 in experiment [2] (Homo sapiens, PBMC, 6 h) was > 20000 nM.
On the same counts, the results for `CC(C)c1nn(CC(=O)Nc2ccc3nnc(C(F)(F)F)n3n2)c(=O)c2ccc(C(F)(F)F)cc12` [Final Cpd X87] are 916 nM and > 20000 nM.
In the same order, the values of `CC(C)c1nn(CC(=O)Nc2ccc3c(C#N)ncn3c2)c(=O)c2ccc(C(F)(F)F)cc12` [Final Cpd X88] are 924 nM and > 20000 nM.
`CC(C)c1nn(CC(=O)NC2CCc3nncn3C2)c(=O)c2ccc(C(F)(F)F)cc12` (centres unmarked) [Final Cpd X89]: the half-maximal inhibitory concentration (IC50) in experiment [1] (Homo sapiens, PBMC, 6 h) came out at 924 nM. Besides, in experiment [2] (Homo sapiens, PBMC, 6 h), the EC50 is > 20000 nM.
As to `CC(C)c1nn(CC(=O)N[C@H]2CC[C@@H]2O)c(=O)c2ccc(C(F)(F)F)cc12` [Final Cpd X91], in experiment [1], the 50% inhibitory concentration (IC50) came out at 954 nM. Further, the EC50 in experiment [2] is > 20000 nM.
`Cc1cc(NC(=O)Cn2nc(C(C)C)c3cc(C(F)(F)F)ccc3c2=O)cn2ccnc12` [Final Cpd X92]: the half-maximal inhibitory concentration (IC50) in experiment [1] (Homo sapiens, PBMC, 6 h) is 970 nM. The EC50 in experiment [2] (Homo sapiens, PBMC, 6 h) is > 20000 nM.
In the case of `Cn1nc(NC(=O)Cn2nc(C3CC3)c3cc(C(F)(F)F)ccc3c2=O)ccc1=O` [Final Cpd X93], the 50% inhibitory concentration (IC50) in experiment [1] (Homo sapiens, PBMC, 6 h) is 1010 nM. The EC50 in experiment [2] (Homo sapiens, PBMC, 6 h) is > 20000 nM.
On to `CC(C)c1nn(CC(=O)N[C@H]2C[C@H](O)C2)c(=O)c2ccc(C(F)(F)F)cc12` [Final Cpd X94], for which, in experiment [1] (Homo sapiens, PBMC, 6 h), the 50% inhibitory concentration (IC50) came out at 1070 nM. Besides, the EC50 in experiment [2] (Homo sapiens, PBMC, 6 h) was > 20000 nM.

Usually IC50 stands for the point on the concentration scale where inhibition reaches its midpoint. One may read the EC50 as the concentration at which the effect is half-maximal. A higher EC50 goes with weaker potency.

For the origin of these results see patent US20230202989A1, “COMPOUNDS” (JANSSEN PHARMACEUTICA NV, priority 2020, published 2023).
